The values below are quoted from earlier work in patent US20110287109A1 (MAX INTERNATIONAL, LLC, priority 2010, published 2011).

The subject of series [1] is glutathione levels. The settings on record: mice, 8 mmol/kg i.p.
Series [2] deals with mice exposed to cyclophosphamide. The settings on record: 8 mmol/kg.
Series [3] concerns acetaminophen hepatic and renal toxicity. The note with it: mice, 2 g/kg.
Series [4] has as its system irradiation-induced bowel injury. The settings on record: mice, 1 g/kg.
The conditions of series [5]: administered directly to humans.
Series [6] has as its system exercise capacity. The note with it: healthy humans, orally, 8-10 g per day by an adult.
For series [7], the system named is ATP levels. The note with it: dogs subjected to ischemia (heart attack model), about 3 g/day for at least 5 days.

For the molecule `O=C(O)[C@@H]1CSC(C(O)C(O)C(O)CO)N1` (stereo partly drawn) [RibCys, 2(R,S)-D-ribo-(1′,2′,3′,4′-tetrahydroxybutyl)thiazolidine-4(R)-carboxylic acid], the “increase of glutathione level in heart” value in series [1] (heart) is listed as 1.5 ×. Also, the “increase of glutathione level in muscle tissue” value in series [1] (muscle tissue) is 2.5 ×. Besides, the “delivery of protective amounts of cysteine” value in series [2] was “deliver effective protective amounts of cysteine”. For the same molecule, the “protection against acetaminophen hepatic and renal toxicity” value in series [3] is “protect mice against acetaminophen hepatic and renal toxicity”. In addition, in series [4], the “protection against irradiation-induced bowel injury” value is recorded as “protect mice against irradiation-induced bowel injury”.
For the molecule `O=C[C@H](O)[C@H](O)[C@H](O)CO` [ribose], in series [5], the “toxicity over wide dosage ranges” value is given as “essentially non-toxic”. For the same molecule, the exercise capacity result in series [6] was “increase exercise capacity”. The ATP levels result in series [7] is “effectively restored and maintained ATP levels”.
